# Measurements from article PMC7031696 (Cell chemical biology, 2019).
# Tested on: 3D7-MR4 trophozoite parasite-infected RBCs
# Assay: Metabolomic profiling (hydrophilic metabolite changes, UHPLC-MS)
# Format: cell-based, Plasmodium falciparum
substance,measurement,setting,value
Ferroquine [reference compound],changes within the set of metabolites detected (low fold change group),"10 × IC50^72h, 2.5 hr, trophozoites",did not induce major changes
same,Log2(fold changes) 1_3-Bisphosphoglyceric acid,"metabolite 1_3-Bisphosphoglyceric acid, log2 fold change",0.0000
same,Log2(fold changes) 2-Hydroxy-2-methylbutanedioic acid,"metabolite 2-Hydroxy-2-methylbutanedioic acid, log2 fold change",-0.0247
same,Log2(fold changes) 2-Isopropylmalic acid,"metabolite 2-Isopropylmalic acid, log2 fold change",0.0000
same,Log2(fold changes) 2-dehydro-D-gluconate,"metabolite 2-dehydro-D-gluconate, log2 fold change",-0.3147
same,Log2(fold changes) 2-oxo-4-methylthiobutanoate,"metabolite 2-oxo-4-methylthiobutanoate, log2 fold change",0.0000
same,Log2(fold changes) 2_3-Diphosphoglyceric acid,"metabolite 2_3-Diphosphoglyceric acid, log2 fold change",-0.0833
same,Log2(fold changes) 3-phosphoglycerate,"metabolite 3-phosphoglycerate, log2 fold change",0.2090
same,Log2(fold changes) 3-phosphoserine,"metabolite 3-phosphoserine, log2 fold change",0.0000
same,Log2(fold changes) 4-Pyridoxic acid,"metabolite 4-Pyridoxic acid, log2 fold change",0.0751
same,Log2(fold changes) 4-aminobutyrate,"metabolite 4-aminobutyrate, log2 fold change",0.0759
same,Log2(fold changes) 4-phosphopantetheine,"metabolite 4-phosphopantetheine, log2 fold change",0.0000
same,Log2(fold changes) 4-phosphopantothenate,"metabolite 4-phosphopantothenate, log2 fold change",0.0213
same,Log2(fold changes) 5-aminopentanoic acid,"metabolite 5-aminopentanoic acid, log2 fold change",0.0000
same,Log2(fold changes) 5-methyl-THF,"metabolite 5-methyl-THF, log2 fold change",0.0000
same,Log2(fold changes) 5-phosphoribosyl-1-pyrophosphate,"metabolite 5-phosphoribosyl-1-pyrophosphate, log2 fold change",0.0000
same,Log2(fold changes) 6-phospho-D-gluconate,"metabolite 6-phospho-D-gluconate, log2 fold change",0.0000
same,Log2(fold changes) ADP-D-glucose,"metabolite ADP-D-glucose, log2 fold change",0.0625
same,Log2(fold changes) Acetyl-glycine,"metabolite Acetyl-glycine, log2 fold change",0.0000
same,Log2(fold changes) Acetyllysine,"metabolite Acetyllysine, log2 fold change",0.2432
same,Log2(fold changes) Aminoadipic acid,"metabolite Aminoadipic acid, log2 fold change",0.0000
same,Log2(fold changes) CDP,"metabolite CDP, log2 fold change",-0.2924
same,Log2(fold changes) CDP-choline,"metabolite CDP-choline, log2 fold change",0.0000
same,Log2(fold changes) CDP-ethanolamine,"metabolite CDP-ethanolamine, log2 fold change",0.1904
same,Log2(fold change) of CMP,metabolite CMP,-0.0276
same,Log2(fold change) of CTP,metabolite CTP,0.0362
same,Log2(fold changes) Citraconic acid,"metabolite Citraconic acid, log2 fold change",0.0302
same,Log2(fold change) of D-glucarate,metabolite D-glucarate,0.4691
same,Log2(fold change) of D-gluconate,metabolite D-gluconate,0.0000
same,Log2(fold change) of D-glucosamine-1/6-phosphate,metabolite D-glucosamine-1/6-phosphate,0.0000
same,Log2(fold change) of D-sedoheptulose-1/7-phosphate,metabolite D-sedoheptulose-1/7-phosphate,-0.0036
same,Log2(fold change) of DL-Pipecolic Acid,metabolite DL-Pipecolic Acid,-0.1035
same,Log2(fold change) of DLH,metabolite DLH,0.0094
same,Log2(fold change) of DLS,metabolite DLS,0.0686
same,Log2(fold change) of Decanoyl-CoA,metabolite Decanoyl-CoA,0.0000
same,Log2(fold change) of EV,metabolite EV,0.0000
same,Log2(fold change) of FAD,metabolite FAD,0.0236
same,Log2(fold change) of FMN,metabolite FMN,0.1126
same,Log2(fold change) of G3P/DHAP,metabolite G3P/DHAP,0.0000
same,Log2(fold change) of GDP,metabolite GDP,-0.2435
same,Log2(fold change) GMP,metabolite GMP,-0.0369
same,Log2(fold change) GTP,metabolite GTP,0.0612
same,Log2(fold change) HVDD,metabolite HVDD,0.0000
same,Log2(fold change) Hexose,metabolite Hexose,0.9215
same,Log2(fold change) Hydroxyisocaproic acid,metabolite Hydroxyisocaproic acid,0.0000
same,Log2(fold change) IDP,metabolite IDP,0.0000
same,Log2(fold change) IMP,metabolite IMP,-0.0158
same,Log2(fold change) Inositol,metabolite Inositol,0.0000
same,Log2(fold change) Isopentyl-PP,metabolite Isopentyl-PP,0.0768
same,Log2(fold change) L-arginino-succinate,metabolite L-arginino-succinate,0.0000
same,Log2(fold change) LD,metabolite LD,0.1184
same,Log2(fold change) Myristoyl/tetradecanoyl-CoA,metabolite Myristoyl/tetradecanoyl-CoA,0.0000
same,Log2(fold change) N-Acetyl-L-alanine,metabolite N-Acetyl-L-alanine,-0.1094
same,Log2(fold change) N-acetyl-L-ornithine,metabolite N-acetyl-L-ornithine,0.3046
same,Log2(fold change) N-acetyl-glucosamine-1/6-phosphate,metabolite N-acetyl-glucosamine-1/6-phosphate,-0.0561
same,Log2(fold change) N-acetyl-glutamate,metabolite N-acetyl-glutamate,0.1101
same,Log2(fold change) N-acetyl-glutamine,metabolite N-acetyl-glutamine,0.0004
same,Log2(fold change) N-carbamoyl-L-aspartate,metabolite N-carbamoyl-L-aspartate,0.0860
same,Log2(fold change) NAD+,metabolite NAD+,0.0993
same,Log2(fold change) NADH,metabolite NADH,0.0000
same,Log2(fold change) NADP+,metabolite NADP+,-0.0805
same,Log2(fold change) NADPH,metabolite NADPH,0.9289
same,Log2(fold change) O-acetyl-L-serine,metabolite O-acetyl-L-serine,0.0000
same,Log2(fold change) Octoluse 8/1P,metabolite Octoluse 8/1P,0.1026
same,Log2(fold change) Octoluse Bisphosphate,metabolite Octoluse Bisphosphate,0.0231
same,Log2(fold change) PD,metabolite PD,0.1011
same,Log2(fold change) PE,metabolite PE,0.0655
same,Log2(fold change) PEE,metabolite PEE,0.0431
same,Log2(fold change) PEEK,metabolite PEEK,0.3448
same,Log2(fold change) PVNF,metabolite PVNF,0.0000
same,Log2(fold change) Pyroglutamic acid,metabolite Pyroglutamic acid,0.1702
same,Log2(fold change) Pyrophosphate,metabolite Pyrophosphate,0.0000
same,Log2(fold change) Ribose-5-phosphate,metabolite Ribose-5-phosphate,0.0000
same,Log2(fold change) S-adenosyl-L-homocysteine,metabolite S-adenosyl-L-homocysteine,0.0736
same,Log2(fold change) S-adenosyl-L-methioninamine,metabolite S-adenosyl-L-methioninamine,0.0000
same,Log2(fold change) S-adenosyl-L-methionine,metabolite S-adenosyl-L-methionine,0.0000
same,Log2(fold change) S-methyl-5'-thioadenosine,metabolite S-methyl-5'-thioadenosine,0.0000
same,Log2(fold change) SD,metabolite SD,0.1281
same,Log2(fold change) SDL,metabolite SDL,0.2089
same,Log2(fold change) SID,metabolite SID,0.0000
same,Log2(fold change) Sedoheptulose bisphosphate,metabolite Sedoheptulose bisphosphate,0.0573
same,Log2(fold change) Thiamine pyrophosphate,metabolite Thiamine pyrophosphate,0.0000
same,Log2(fold changes) UDP-D-glucose,"metabolite UDP-D-glucose, log2 fold change",0.0465
same,Log2(fold changes) UDP-D-glucuronate,"metabolite UDP-D-glucuronate, log2 fold change",0.0272
same,Log2(fold changes) UDP-N-acetyl-glucosamine,"metabolite UDP-N-acetyl-glucosamine, log2 fold change",0.0319
same,Log2(fold changes) UDP,"metabolite UDP, log2 fold change",-0.2525
same,Log2(fold changes) UMP,"metabolite UMP, log2 fold change",-0.0522
same,Log2(fold changes) UTP,"metabolite UTP, log2 fold change",0.1015
same,Log2(fold changes) VD,"metabolite VD, log2 fold change",0.1916
same,Log2(fold changes) Xanthurenic acid,"metabolite Xanthurenic acid, log2 fold change",0.0000
same,Log2(fold changes) a-ketoglutarate,"metabolite a-ketoglutarate, log2 fold change",-0.2164
same,Log2(fold changes) acetyl-CoA,"metabolite acetyl-CoA, log2 fold change",0.0673
same,Log2(fold changes) acetyl-aspartate,"metabolite acetyl-aspartate, log2 fold change",-0.0096
same,Log2(fold changes) acetylphosphate,"metabolite acetylphosphate, log2 fold change",0.0000
same,Log2(fold changes) aconitate,"metabolite aconitate, log2 fold change",0.0000
same,Log2(fold changes) adenine,"metabolite adenine, log2 fold change",0.0000
same,Log2(fold changes) adenosine 5'-phosphosulfate,"metabolite adenosine 5'-phosphosulfate, log2 fold change",-0.1961
same,Log2(fold changes) adenosine,"metabolite adenosine, log2 fold change",0.0000
same,Log2(fold changes) alanine/sarcosine,"metabolite alanine/sarcosine, log2 fold change",0.0137
same,Log2(fold changes) anthranilate,"metabolite anthranilate, log2 fold change",0.0000
same,Log2(fold changes) arginine,"metabolite arginine, log2 fold change",0.0962
same,Log2(fold changes) asparagine,"metabolite asparagine, log2 fold change",0.2455
same,Log2(fold changes) aspartate,"metabolite aspartate, log2 fold change",0.0829
same,Log2(fold changes) biotin,"metabolite biotin, log2 fold change",0.0000
same,Log2(fold changes) cCMP,"metabolite cCMP, log2 fold change",0.0000
same,Log2(fold changes) cGMP,"metabolite cGMP, log2 fold change",0.0000
same,Log2(fold changes) carnitine,"metabolite carnitine, log2 fold change",0.0000
same,Log2(fold changes) citrate/isocitrate,"metabolite citrate/isocitrate, log2 fold change",0.0063
same,Log2(fold change) of coenzyme A,metabolite coenzyme A,0.9119
same,Log2(fold change) of cyclic-AMP,metabolite cyclic-AMP,0.1031
same,Log2(fold change) of cytidine,metabolite cytidine,0.1024
same,Log2(fold change) of dAMP,metabolite dAMP,-0.3497
same,Log2(fold change) of dATP,metabolite dATP,0.0366
same,Log2(fold change) of dCDP,metabolite dCDP,-0.2652
same,Log2(fold change) of dCMP,metabolite dCMP,-0.1471
same,Log2(fold change) of dCTP,metabolite dCTP,0.0304
same,Log2(fold change) of dGDP/ADP,metabolite dGDP/ADP,-0.1961
same,Log2(fold change) of dGMP/AMP,metabolite dGMP/AMP,-0.3182
same,Log2(fold change) of dGTP/ATP,metabolite dGTP/ATP,0.0666
same,Log2(fold change) of dTDP,metabolite dTDP,-0.3263
same,Log2(fold change) of dTMP,metabolite dTMP,-0.4999
same,Log2(fold change) of dTTP,metabolite dTTP,0.0866
same,Log2(fold change) of dUMP,metabolite dUMP,0.0000
same,Log2(fold change) of dUTP,metabolite dUTP,0.0000
same,Log2(fold change) of deoxyguanosine,metabolite deoxyguanosine,0.0000
same,Log2(fold change) of deoxyinosine,metabolite deoxyinosine,0.0000
same,Log2(fold change) of deoxyribose-phosphate,metabolite deoxyribose-phosphate,0.0000
same,Log2(fold change) of deoxyuridine,metabolite deoxyuridine,0.0000
same,Log2(fold change) of dihydroorotate,metabolite dihydroorotate,0.1627
same,Log2(fold change) of folate,metabolite folate,0.1440
same,Log2(fold change) of fructose-1-6-bisphosphate,metabolite fructose-1-6-bisphosphate,0.3162
same,Log2(fold change) of fructose-6-phosphate,metabolite fructose-6-phosphate,0.3514
same,Log2(fold change) of fumarate,metabolite fumarate,-0.0660
same,Log2(fold change) of glucono-lactone,metabolite glucono-lactone,0.0470
same,Log2(fold change) of glucose-1/6-phosphate,metabolite glucose-1/6-phosphate,0.0000
same,Log2(fold change) of glutamate,metabolite glutamate,0.0411
same,Log2(fold change) of glutamine,metabolite glutamine,0.1003
same,Log2(fold change) of glutathione,metabolite glutathione,0.0000
same,Log2(fold change) glutathione disulfide,metabolite glutathione disulfide,-0.3466
same,Log2(fold change) glycerate,metabolite glycerate,0.0000
same,Log2(fold change) guanine,metabolite guanine,0.0000
same,Log2(fold change) guanosine,metabolite guanosine,-0.2330
same,Log2(fold change) histidine,metabolite histidine,0.0507
same,Log2(fold change) homocysteic acid,metabolite homocysteic acid,0.0000
same,Log2(fold change) hydroxyphenylpyruvate,metabolite hydroxyphenylpyruvate,0.0000
same,Log2(fold change) hydroxyproline/Aminolevulinate,metabolite hydroxyproline/Aminolevulinate,0.0365
same,Log2(fold change) hypoxanthine,metabolite hypoxanthine,0.0000
same,Log2(fold change) indole,metabolite indole,0.0000
same,Log2(fold change) inosine,metabolite inosine,0.4396
same,Log2(fold change) isoleucine,metabolite isoleucine,0.0740
same,Log2(fold change) lactate,metabolite lactate,0.1682
same,Log2(fold change) leucine,metabolite leucine,0.0991
same,Log2(fold change) lysine,metabolite lysine,0.0854
same,Log2(fold change) malate,metabolite malate,-0.0032
same,Log2(fold change) maleic acid,metabolite maleic acid,0.0142
same,Log2(fold change) methionine,metabolite methionine,0.2846
same,Log2(fold change) myo-inositol,metabolite myo-inositol,0.0000
same,Log2(fold change) nicotinamide mononucleotide,metabolite nicotinamide mononucleotide,-0.0133
same,Log2(fold change) nicotinate,metabolite nicotinate,0.1646
same,Log2(fold change) ornithine,metabolite ornithine,0.0000
same,Log2(fold change) orotate,metabolite orotate,0.0201
same,Log2(fold change) orotidine-5'-phosphate,metabolite orotidine-5'-phosphate,0.1401
same,Log2(fold change) oxaloacetate,metabolite oxaloacetate,0.0000
same,Log2(fold change) p-aminobenzoate,metabolite p-aminobenzoate,0.0000
same,Log2(fold change) p-hydroxybenzoate,metabolite p-hydroxybenzoate,0.0000
same,Log2(fold change) pantothenate,metabolite pantothenate,0.1559
same,Log2(fold change) phenylalanine,metabolite phenylalanine,0.0217
same,Log2(fold change) phenylpyruvate,metabolite phenylpyruvate,0.0000
same,Log2(fold change) phosphoenolpyruvate,metabolite phosphoenolpyruvate,0.1068
same,Log2(fold change) prephenate,metabolite prephenate,0.0000
same,Log2(fold change) proline,metabolite proline,0.0000
same,Log2(fold change) pyridoxine,metabolite pyridoxine,0.3553
same,Log2(fold change) pyruvate,metabolite pyruvate,-0.3114
same,Log2(fold change) riboflavin,metabolite riboflavin,0.0000
same,Log2(fold change) ribose,metabolite ribose,0.0000
same,Log2(fold change) ribose-phosphate,metabolite ribose-phosphate,0.0000
same,Log2(fold change) ribulose-5-phosphate,metabolite ribulose-5-phosphate,0.1038
same,Log2(fold change) serine,metabolite serine,0.2426
same,Log2(fold change) sn-glycerol-3-phosphate,metabolite sn-glycerol-3-phosphate,0.0527
same,Log2(fold change) succinate/Methylmalonic acid,metabolite succinate/Methylmalonic acid,-0.0206
same,Log2(fold change) succinyl-CoA/methylmalonyl-CoA,metabolite succinyl-CoA/methylmalonyl-CoA,0.0000
same,Log2(fold change) taurine,metabolite taurine,0.3032
same,Log2(fold change) thiamine,metabolite thiamine,0.1205
same,Log2(fold change) threonine/homoserine,metabolite threonine/homoserine,0.0762
same,Log2(fold change) thymidine,metabolite thymidine,0.0000
same,Log2(fold changes) thymine,"metabolite thymine, log2 fold change",0.0000
same,Log2(fold changes) trehalose-6-Phosphate,"metabolite trehalose-6-Phosphate, log2 fold change",0.0000
same,Log2(fold changes) tryptophan,"metabolite tryptophan, log2 fold change",-0.1782
same,Log2(fold changes) tyrosine,"metabolite tyrosine, log2 fold change",0.0328
same,Log2(fold changes) uridine,"metabolite uridine, log2 fold change",0.0000
same,Log2(fold changes) valine,"metabolite valine, log2 fold change",0.0750
same,Log2(fold changes) xanthine,"metabolite xanthine, log2 fold change",0.0000
same,Log2(fold changes) xanthosine-5-phosphate,"metabolite xanthosine-5-phosphate, log2 fold change",0.2017
same,Log2(fold changes) xanthosine,"metabolite xanthosine, log2 fold change",-0.1521
same,Log2(fold changes) xylose,"metabolite xylose, log2 fold change",0.0000
